Test results: patent US20100093706A1, “MULTIMEDIATOR TRANSPORTER INHIBITORS FOR USE IN TREATMENT OF CENTRAL NERVOUS SYSTEM DISORDERS” (priority 2006, published 2010)
pEC50, pIC50: −log10 of the molar value. “Also recorded” adds a separate entry of the source. Where two headings read alike, the source gives them in different places.

What was measured:
rats = experiment: forced swim test (behavioral despair assay) in rats; type: in vivo; conditions: rat
Protocol: In vivo efficacy of several illustrative inhibitors of the instant invention, (1), (3), and (4), were measured using standard forced swim test model using rat. The objective of this study was to assess the antidepressant effects of test compounds in the behavioral despair assay in rats using a modification of a method described by Porsolt R. D. et al. in Behavioural despair in rats: a new model sensitive to antidepressant treatment, Eur. J. Pharmacol., 47: 379-391, 1978; Porsolt et al., Nature 266: 730-732, 1977; and Porsolt et al., in Psychopharmacology, Olivier, Mos, and Slangen (eds) Birkhäuser Verlag, Basel, pp. 137-159, 1991. Briefly, when mice (or rats) are forced to swim in a cylinder from which no escape is possible, they readily adopt a characteristic immobile posture and make no further attempts to escape except for small movements needed to keep floating. The immobility is considered by some to reflect a “depressive mood” (Porsolt et al., Nature 266: 730-732, 1977) in which animals cease to struggle to escape the aversive situation. The immobility induced by the procedure is influenced by a wide variety of antidepressants (Porsolt et al., in Psychopharmacology, Olivier, Mos, and Slangen (eds) Birkhauser Verlag, Basel, pp. 137-159, 1991) and has a good predictive validity in that it detects antidepressants with different mechanisms of action (TCAs, SSRIs, MAOIs, and other atypical ones). The test is sensitive to muscle-relaxant (benzodiazepines) and sedative (neuroleptics) effects, leading to enhanced immobility (Porsolt et al., supra).
In a typical experiment, animals are placed singly into a cylinder (e.g. 46×30 cm) containing fresh water at about 20° C. for 6 minutes. The activity (or immobility) of the animal is measured by an observer minute by minute. In more detail, the animals were preconditioned in a pretest session, where the rats were individually forced to swim inside a vertical plexiglass cylinder containing water maintained at 19-20° C. After 15 minutes in the water, they were allowed to dry for […] in a heated enclosure. Twenty-four hours later, the compounds were administered either intraperitoneally or orally to the animals. One hour after administration of the test compound, animals were put back into the cylinder containing water. The total duration of immobility was measured during the last 4 minutes of a 6 minute test.
The results are expressed as the percentage of variation of the total duration of immobility calculated from the mean value of the vehicle-treated group (% variation=[(immobility duration of vehicle−immobility duration of test compound)/(immobility duration of vehicle)]×100%).
In order to measure the in vivo efficacy of inhibiting DAT in rats using an inhibitor of the instant invention, one test inhibitor ((1), (3), or (4)) was injected i.p. as racemic mixtures of diastereomers into the animals, at various-doses (e.g. 7.5 and […]). Sibutramine (2.0 and 2.5 mg/kg), Bupropion (7.5 and 10 mg/kg), and Imipramine (30 mg/kg) were similarly administered as controls. […] Asterisks indicate highly statistical significant results.
A fourth inhibitor, (6) was administered p.o. as a racemic mixture of diastereomers at either 35 or 75 mg/kg. Sibutramine (5.0 and 3.75 mg/kg), Bupropion (30 and 40 mg/kg), and Imipramine (100 mg/kg) were similarly administered as controls.
Similarly, (1) was also administered p.o. as a racemic mixture of enriched (95:5) diastereomer at either 35 or 75 mg/kg. […]

rat = experiment: acute single-dose toxicology in rat; type: in vivo; conditions: rat (n = 5), i.v., observed 72 hours
Protocol: An in vivo evaluation was carried out to determine the maximum tolerated dose of numerous test compounds in rat. The compounds were administered i.v., and the animals were then observed for 72 hours.
Briefly, experimental rats, in groups of 5 animals, were administered with various doses of respective inhibitors (e.g. 30, 90, 120, and 200 mg/kg), and the observed toxicological effects were recorded.

[1] = biological target: NET (norepinephrine transporter or SLC6A2) (Homo sapiens, UniProt P23975); experiment: cell-based
DAT (SLC6A3) = biological target: T1, DAT (SLC6A3) (Homo sapiens, UniProt Q01959); experiment: in vitro inhibition profile, IC50 of DAT (uptake assay); type: cell-based
T1 construct: expressed in transfected cells
Protocol: Before the assay, cells expressing DAT are washed once with KRH and equilibrated for 5 min. The cells may be assayed in 24-well plates and incubated for 2-5 min. with tritiated amines. Nontransported inhibitors were preincubated for 5 min, and substrates were applied together with the tritiated substrate.
Experiments to determine the ionic requirements for DAT-mediated uptake are done in KRH buffer, substituting LiCl or choline Cl for NaCl (sodium-dependence) or substituting D-gluconates for NaCl and KCl, and Ca(NO3)2 for CaCl2 (chloride dependence). Cells are washed twice with sodium- or chloride-free KRH before the assay (each wash step at least 5 min). In all transport assays, incubation periods and substrate concentrations are chosen such that uptake obeyed first-order rate kinetics.
Vmax values for amine uptake in stable transfected DAT-cells are determined in parallel assays for at least two amines per experiment and expressed as relative values.

5-HT = 5-HT (Homo sapiens, UniProt P31645); experiment: cell-based
DAT (r) = DAT (r) (Rattus norvegicus, UniProt P23977); experiment: in vitro functional uptake, rat DAT; type: cell-based; conditions: rat; unit inferred; read-out: DAT (r) in vitro functional uptake
DAT (h) = biological target: T2, DAT (h) (Homo sapiens, UniProt Q01959); experiment: cell-based; type: cell-based; conditions: for EC50: human, nM, read-out: DAT (h) in vitro functional uptake
T2 construct: expressed in transfected cells
Protocol: (§1) Functional activity of the compounds was determined in vitro in cellular assays using recombinant human cell lines.

NET (h) = biological target: T3, NET (h) (Homo sapiens, UniProt P23975); experiment: cell-based; type: cell-based; conditions: human; nM; read-out: NET (h) in vitro functional uptake
T3 construct: expressed in transfected cells; host or cells: MDCK
Protocol: as §1

5-HT (h) = biological target: T4, 5-HT (h) (Homo sapiens, UniProt P31645); experiment: cell-based; type: cell-based; conditions: human; nM; read-out: 5-HT (h) in vitro functional uptake
T4 construct: expressed in transfected cells; host or cells: HEK-293
Protocol: as §1

Sprague-Dawley rats = experiment: 7 day multidose oral dosing toxicology study; type: in vivo, rat; conditions: for 7 day multidose oral toxicology, symptoms: Sprague-Dawley rats n = 6 (3M/3F)
From the text: The representative results are listed below in Table VI.

T2 sequence (Q01959 whole entry): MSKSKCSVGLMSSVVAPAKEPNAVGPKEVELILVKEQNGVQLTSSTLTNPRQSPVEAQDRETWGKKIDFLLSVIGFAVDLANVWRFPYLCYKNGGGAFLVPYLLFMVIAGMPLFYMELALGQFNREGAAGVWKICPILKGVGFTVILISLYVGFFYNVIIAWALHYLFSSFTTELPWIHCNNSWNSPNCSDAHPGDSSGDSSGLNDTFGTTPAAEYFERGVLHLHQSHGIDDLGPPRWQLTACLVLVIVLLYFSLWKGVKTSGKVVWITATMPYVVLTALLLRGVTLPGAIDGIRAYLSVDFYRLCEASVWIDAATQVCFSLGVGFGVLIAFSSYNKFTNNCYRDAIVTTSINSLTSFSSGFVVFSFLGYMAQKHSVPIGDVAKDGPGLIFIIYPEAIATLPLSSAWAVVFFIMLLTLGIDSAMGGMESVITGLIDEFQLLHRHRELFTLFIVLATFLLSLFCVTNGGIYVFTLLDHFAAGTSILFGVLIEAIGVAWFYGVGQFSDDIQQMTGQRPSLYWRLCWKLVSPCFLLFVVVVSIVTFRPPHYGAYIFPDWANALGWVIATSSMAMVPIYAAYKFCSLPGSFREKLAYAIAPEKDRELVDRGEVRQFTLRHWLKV
T3 sequence (P23975 whole entry): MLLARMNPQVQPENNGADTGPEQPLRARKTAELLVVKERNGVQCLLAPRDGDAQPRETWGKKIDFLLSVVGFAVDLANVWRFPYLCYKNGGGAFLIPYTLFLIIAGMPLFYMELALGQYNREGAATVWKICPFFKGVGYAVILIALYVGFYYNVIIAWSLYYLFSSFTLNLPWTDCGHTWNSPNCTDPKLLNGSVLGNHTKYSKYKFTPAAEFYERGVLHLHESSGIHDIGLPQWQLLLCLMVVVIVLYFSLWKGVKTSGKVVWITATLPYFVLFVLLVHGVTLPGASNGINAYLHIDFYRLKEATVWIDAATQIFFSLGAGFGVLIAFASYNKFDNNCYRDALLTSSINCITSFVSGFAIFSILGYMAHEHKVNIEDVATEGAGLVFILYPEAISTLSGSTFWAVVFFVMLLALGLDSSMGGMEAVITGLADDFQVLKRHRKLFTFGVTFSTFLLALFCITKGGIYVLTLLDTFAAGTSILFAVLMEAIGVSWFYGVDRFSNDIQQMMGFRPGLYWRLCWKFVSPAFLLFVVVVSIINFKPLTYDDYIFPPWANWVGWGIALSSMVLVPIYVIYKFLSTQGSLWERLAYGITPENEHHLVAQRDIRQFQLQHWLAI
T4 sequence (P31645 whole entry): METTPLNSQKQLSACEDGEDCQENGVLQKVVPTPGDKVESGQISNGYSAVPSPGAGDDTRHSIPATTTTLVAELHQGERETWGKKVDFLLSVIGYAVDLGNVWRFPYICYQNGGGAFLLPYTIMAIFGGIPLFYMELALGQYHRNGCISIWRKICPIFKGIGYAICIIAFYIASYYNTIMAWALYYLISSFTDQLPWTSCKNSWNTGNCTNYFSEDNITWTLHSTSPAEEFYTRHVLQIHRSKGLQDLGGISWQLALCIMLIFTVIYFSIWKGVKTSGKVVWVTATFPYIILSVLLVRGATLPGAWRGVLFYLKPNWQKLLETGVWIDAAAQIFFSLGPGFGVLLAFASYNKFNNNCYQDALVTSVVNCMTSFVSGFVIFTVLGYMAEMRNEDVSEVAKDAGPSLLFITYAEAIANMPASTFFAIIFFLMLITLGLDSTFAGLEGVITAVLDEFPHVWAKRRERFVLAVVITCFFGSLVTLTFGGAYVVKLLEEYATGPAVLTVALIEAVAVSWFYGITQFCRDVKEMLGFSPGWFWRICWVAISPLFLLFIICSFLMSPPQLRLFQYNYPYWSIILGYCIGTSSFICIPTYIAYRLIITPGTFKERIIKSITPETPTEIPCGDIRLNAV
T1 sequence (Q01959 whole entry): as the sequence (Q01959 whole entry) above
Chain of DAT (r) (P23977 whole entry): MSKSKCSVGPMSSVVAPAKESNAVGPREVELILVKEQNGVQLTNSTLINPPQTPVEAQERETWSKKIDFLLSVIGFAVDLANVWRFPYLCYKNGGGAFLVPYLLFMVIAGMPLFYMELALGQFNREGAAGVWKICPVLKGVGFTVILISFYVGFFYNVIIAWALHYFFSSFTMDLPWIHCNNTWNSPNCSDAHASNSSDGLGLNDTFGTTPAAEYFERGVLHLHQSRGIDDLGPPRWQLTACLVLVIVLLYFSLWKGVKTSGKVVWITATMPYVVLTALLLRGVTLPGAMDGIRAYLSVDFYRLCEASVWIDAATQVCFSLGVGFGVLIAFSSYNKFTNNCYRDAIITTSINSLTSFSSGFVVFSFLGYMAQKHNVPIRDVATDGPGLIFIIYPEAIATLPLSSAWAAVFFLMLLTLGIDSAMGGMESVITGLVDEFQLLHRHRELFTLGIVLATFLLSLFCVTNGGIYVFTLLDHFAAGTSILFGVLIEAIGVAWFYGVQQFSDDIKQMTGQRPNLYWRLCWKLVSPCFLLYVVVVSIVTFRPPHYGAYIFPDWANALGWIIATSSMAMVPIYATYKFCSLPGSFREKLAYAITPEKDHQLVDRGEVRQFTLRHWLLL
Chain of NET (norepinephrine transporter or SLC6A2) (P23975 whole entry): as the sequence (P23975 whole entry) above
Chain of 5-HT (P31645 whole entry): as the sequence (P31645 whole entry) above

| SMILES | EC50 (DAT (h)) [nM] | EC50 (NET (h)) [nM] | EC50 (5-HT (h)) [nM] | also measured |
| --- | --- | --- | --- | --- |
| CC1CCC(COc2ccc(C(F)(F)F)cc2)CN1CC(O)C1(c2ccc(Cl)cc2)CCC1 (stereo not shown) [(4)] | – | – | – | forced swim test efficacy versus commercial drugs (FIG. 1) (rats; i.p., racemic mixtures of diastereomers): performed equally well, if not better, than the commercial drugs Sibutramine, Bupropion, and Imipramine; acute single dose toxicology, observed symptoms (rat; 120 mg/kg): decreased grip strength and limb tone and convulsions; acute single dose toxicology, observed symptoms (rat; 200 mg/kg): Convulsions |
| CC1C(COc2ccc(C(F)(F)F)cc2)CCCN1CC1(c2ccc(Cl)cc2)CCC1 (stereo not shown) [(5)] | – | – | – | IC50 [1]: 870 nM; pIC50 (DAT (SLC6A3)): 8.30; fold selectivity of DAT against related receptors (NET, 5-HT) (DAT (SLC6A3); from Table II IC50): 174-2,000 fold; IC50 (5-HT): 10000 nM; pEC50 (DAT (r)): 6.52; pEC50 (DAT (h)): 8.30; selectivity for DAT over 5-HT (DAT (h)): 1000 fold; selectivity for DAT over NET (DAT (h)): 1000 fold |
| CC1C(COc2ccc(C(F)(F)F)cc2)CCCN1CC(O)C1(c2ccc(Cl)cc2)CCC1 (stereo not shown) [(6)] | – | – | – | forced swim test efficacy versus commercial drugs (FIG. 2, FIG. 3) (rats; p.o., 35 or 75 mg/kg): performed equally well, if not better, than the commercial drugs Sibutramine, Bupropion, and Imipramine; acute single dose toxicology, observed symptoms (rat; 200 mg/kg): no observed symptoms |
| C[C@@H]1[C@H](COc2ccc(C(F)(F)F)cc2)CCCN1CC(O)C1(c2ccc(Cl)cc2)CCC1 (stereo partly shown) [(6′)] | 3 | 3 | – | – |
| C[C@H]1CC[C@@H](COc2ccc(C(F)(F)F)cc2)CN1CC1(c2ccc(Cl)cc2)CCC1 [(13), (2S,5R)-1-{[1-(4-Chlorophenyl)cyclobutyl]methyl}-2-methyl-5-{[4-(trifluoromethyl)phenoxy]methyl}piperidine] | < 1 | 100 | > 2000 | – |
| C[C@H]1CCN(CC2(c3ccc(Cl)cc3)CCC2)C[C@@H]1COc1ccc(C(F)(F)F)cc1 [(14), (3R,4S)-1-{[1-(4-Chlorophenyl)cyclobutyl]methyl}-4-methyl-3-{[4-(trifluoromethyl)phenoxy]methyl}piperidine] | < 1 | 150 | > 2000 | – |
| C[C@@H]1CCN(CC2(c3ccc(Cl)cc3)CCC2)C[C@H]1COc1ccc(C(F)(F)F)cc1 [(15), (3S,4R)-1-{[1-(4-Chlorophenyl)cyclobutyl]methyl}-4-methyl-3-{[4-(trifluoromethyl)phenoxy]methyl}piperidine] | < 1 | 350 | > 2000 | – |
| C[C@H]1CCN(CC2(c3ccc(Cl)cc3)CCC2)C[C@H]1COc1ccc(C(F)(F)F)cc1 [(16), (3S,4S)-1-{[1-(4-Chlorophenyl)cyclobutyl]methyl}-4-methyl-3-{[4-(trifluoromethyl)phenoxy]methyl}piperidine] | < 1 | 100 | > 2000 | – |
| C[C@H]1CC[C@@H](COc2ccc(C(F)(F)F)cc2)CN1C[C@@H](O)C1(c2ccc(Cl)cc2)CCC1 [(17), (S)-1-[1-(4-Chlorophenyl)cyclobutyl]-2-{(2S,5R)-2-methyl-5-[4-(trifluoromethyl)phenoxy]methyl}piperidin-1-ylethanol] | 1 | 5 | > 2000 | – |
| C[C@H]1CC[C@@H](COc2ccc(C(F)(F)F)cc2)CN1C[C@H](O)C1(c2ccc(Cl)cc2)CCC1 [(18), (R)-1-[1-(4-Chlorophenyl)cyclobutyl]-2-{(2S,5R)-2-methyl-5-[4-(trifluoromethyl)phenoxy]methyl}piperidin-1-ylethanol] | 1 | 2 | > 2000 | – |
| C[C@@H]1CC[C@H](COc2ccc(C(F)(F)F)cc2)CN1C[C@H](O)C1(c2ccc(Cl)cc2)CCC1 [(19), (R)-1-[1-(4-Chlorophenyl)cyclobutyl]-2-{(2R,5S)-2-methyl-5-[4-(trifluoromethyl)phenoxy]methyl}piperidin-1-ylethanol] | 1 | 9 | > 2000 | – |
| C[C@@H]1CC[C@H](COc2ccc(C(F)(F)F)cc2)CN1C[C@@H](O)C1(c2ccc(Cl)cc2)CCC1 [(20), (S)-1-[1-(4-Chlorophenyl)cyclobutyl]-2-{(2R,5S)-2-methyl-5-[4-(trifluoromethyl)phenoxy]methyl}piperidin-1-ylethanol] | 1 | 2 | 20 | – |
| C[C@@H]1CC[C@@H](COc2ccc(C(F)(F)F)cc2)CN1C[C@@H](O)C1(c2ccc(Cl)cc2)CCC1 [(21), (S)-1-[1-(4-Chlorophenyl)cyclobutyl]-2-{(2R,5R)-2-methyl-5-[4-(trifluoromethyl)phenoxy]methyl}-piperidin-1-ylethanol] | 1 | 5 | 10 | – |
| CC(C)C[C@@H](N)C1(c2ccc(Cl)cc2)CCC1 [R-DDMS, reference compound] | 100 | 200 | 1500 | – |
| CN[C@H](CC(C)C)C1(c2ccc(Cl)cc2)CCC1 [R-DMS, reference compound] | 30 | 300 | 1500 | – |
| CC(C)CC(N(C)C)C1(c2ccc(Cl)cc2)CCC1 (stereo not shown) [Sibutramine] | – | – | – | 7 day multidose oral toxicology, symptoms (Sprague-Dawley rats; oral 100 mg/kg/day, 100 mg/kg/day): decreased grip strength, depression; 7 day multidose oral toxicology, symptoms (Sprague-Dawley rats; oral 400 mg/kg/day, 400 mg/kg/day): convulsions; also recorded: Convulsions;; 7 day multidose oral toxicology, deaths (Sprague-Dawley rats; n = 6, oral 200 mg/kg/day): 2 deaths; 7 day multidose oral toxicology, self-mutilation (number of animals) (Sprague-Dawley rats; n = 6, oral 200 mg/kg/day): 6 self-mutilation |
